Patent US20240102075A1, “METHOD FOR QUANTIFYING 25-HYDROXYVITAMIN D, HYDROXYLASE, QUANTIFICATION COMPOSITION, QUANTIFICATION KIT, ELECTRODE, SENSOR CHIP, AND SENSOR” (KIKKOMAN CORPORATION, priority 2021, published 2024)

How the values were obtained:
[1] = cited from earlier work
[2] = hydroxylase activity using ferredoxin as a mediator, absorbance at 340 nm; format: biochemical; settings: 0.5 mM 25-hydroxyvitamin D3, ferredoxin/ferredoxin reductase/NADPH, 90 seconds, 30° C.
Protocol: VDH obtained by the above-described method and ferredoxin were used to measure hydroxylase activity using 25-hydroxyvitamin D3, which is a vitamin D derivative, as a substrate.
4.19 mg of 25-hydroxyvitamin D3 was dissolved in 1 ml of DMSO (final concentration: 10 mM). Since 25-hydroxyvitamin D3 is lipid-soluble, it was diluted to 1 mM (concentration at the time of measurement: 0.5 mM) using 4.0% (v/v) TritonX-100 solution to maintain solubility.
After incubating 500 μl of the measurement reagent consisting of the composition of Table 2 at 30° C. for 3 minutes, 500 μl of the substrate reagent was added, and the absorbance (Abs) at the wavelength 340 nm was measured over time for 90 seconds using a spectrophotometer (U-3900, manufactured by Hitachi High-Tech Science Corporation). […] Therefore, it was shown that 25-hydroxyvitamin D can be quantified by hydroxylase activity of VDH using ferredoxin as a mediator.

Molecule: 1,25-dihydroxyvitamin D
- half-life in the blood ([1]; in blood): about 15 hours

Molecule: 25-hydroxyvitamin D
- blood half-life ([1]; in vivo): 2-3 weeks

B1: VDH: Vitamin D hydroxylase derived from Pseudonocardia autotrophica NBRC12743 strain, SEQ ID NO: 1, expressed in E. coli (protein, listed as Pseudonocardia autotrophica)
chain: MALTTTGTEQHDLFSGTFWQNPHPAYAALRAEDPVRKLALPDGPVWLLTRYADVREAFVDPRLSKDWRHTLPEDQRADMPATPTPMMILMDPPDHTRLRKLVGRSFTVRRMNELEPRITEIADGLLAGLPTDGPVDLMREYAFQIPVQVICELLGVPAEDRDDFSAWSSVLVDDSPADDKNAAMGKLHGYLSDLLERKRTEPDDALLSSLLAVSDEDGDRLSQEELVAMAMLLLIAGHETTVNLIGNGVLALLTHPDQRKLLAEDPSLISSAVEEFLRFDSPVSQAPIRFTAEDVTYSGVTIPAGEMVMLGLAAANRDADWMPEPDRLDITRDASGGVFFGHGIHFCLGAQLARLEGRVAIGRLFADRPELALAVGLDELVYRESTLVRGLSRMPVTMGPRSA
- change in absorbance (A340) compared to the blank [2]: significant change in absorbance
